Assay results reported in patent US20260199305A1, “LONG-ACTING ORAL PHARMACEUTICAL COMPRISING HYPOXIA-INDUCIBLE FACTOR PROLYL HYDROLASE INHIBITOR AND USE THEREOF” (Kind Pharmaceutical, priority 2023, published 2026).
Where two headings read alike, the source gives them in different places.

Assays:
[1] = Phase 1 single-dose and multiple-dose pharmacokinetics in healthy volunteers; type: in vivo, Humans; settings: for half-life / Tmax: human, oral; for Tmax: read-out: median Tmax
Description: In a Phase 1, randomized, double-blind, placebo-controlled, single-dose and multiple-dose clinical study, a total of 46 healthy volunteers were assigned to one of six dose groups (1 mg, 4 mg, 10 mg, 20 mg, 30 mg, 50 mg) in a single-dose phase. In each dose group, 2 volunteers received a matching placebo. In the 1 mg dose group, 4 volunteers received a single dose of Comp-1 and in the remaining dose groups, 6 volunteers each received a single dose of Comp-1. Blood samples were collected from volunteers within 1 hour before dosing and at 0.5, 1, 1.5, 2, 3, 4, 5, 6, 7, 8, 10, 12, 24, 48, and 72 hours after dosing for pharmacokinetic (PK) analysis.
A total of 32 healthy volunteers were assigned to one of four dose groups (4 mg, 10 mg, 20 mg, 30 mg) in a multiple-dose phase. In each dose group, 2 volunteers received a matching placebo and 6 volunteers received Comp-1 once daily for 10 consecutive days. Blood samples for PK analysis were collected from volunteers within 1 hour before dosing and at 0.5, 1, 1.5, 2, 3, 4, 5, 6, 7, 8, 10, 12, and 24 hours after dosing on the first dosing day (i.e., Day 1), as well as within 1 hour before dosing and at 0.5, 1, 2, 3, 4, 5, 6, 7, 8, 10, 12, 24, 48, and 72 hours after dosing on Days 6, 7, 8, and 10.

[2] = Elimination half-life in rats after single oral gavage; type: in vivo; settings: SD, rat, plasma
Description: Preparation of Single-Dose Oral Formulation: 25.3800 g of meglumine (Sigma) was weighed and dissolved in 80 mL of deionized water. The resulting mixture was stirred for 35 minutes and the volume was made up to 130 mL to obtain a 1M meglumine solution. 4.31 mg, 13.54 mg, and 40.59 mg of Comp-1 were weighed separately and then added to 28.676 mL, 27 mL, and 27 mL of the 1M meglumine solution respectively. The resulting mixtures each was stirred for 31 minutes and sonicated for 5 minutes to obtain colorless transparent solutions with Comp-1 concentrations of 0.15 mg/mL, 0.5 mg/mL, and 1.5 mg/mL, respectively.
18 SD rats (half male, half female) were randomly divided into 3 groups (3 males and 3 females per group). Comp-1 was administered by oral gavage at doses of 1.5, 5.0, and 15.0 mg/kg. Blood samples were collected before administration and at 0.25, 0.5, 1, 2, 4, 6, 8, 24, 48, and 72 hours after administration. The oral vehicle was a 1 M meglumine solution in deionized water, and the administration volume was 10 mL/kg for all doses. All collected plasma samples were stored at −75±15° C. until analysis. The concentration of Comp-1 in SD rat plasma was determined using liquid chromatography-tandem mass spectrometry with Tolbutamide as an internal standard. The mass spectrometer utilized an electrospray ionization source operating in positive ion mode. The precursor-to-product ion transitions monitored were m/z 381.2→306.3 for Comp-1 and m/z 270.9->155.0 for Tolbutamide. Pharmacokinetic parameters of Comp-1 were calculated by software Phoenix™ WinNonlin version 6.1 using a non-compartmental model. Pharmacokinetic data were calculated using a linear log trapezoidal method with a weighting of 1/Y*Y. Samples with concentrations below the lower limit of quantification were not included in the calculation of pharmacokinetic parameters. Microsoft Excel 2010 was used to calculate the mean values of various parameters, with the mean determined from the pharmacokinetic parameters of each animal. The mean elimination half-lives of Comp-1 in male rats at the doses of 1.5, 5.0, and 15.0 mg/kg were: 6.72 hours, 15.0 hours, and 10.2 hours, respectively. The mean elimination half-lives of Comp-1 in female rats at the doses of 1.5, 5.0, and 15.0 mg/kg were: 12.9 hours, 5.72 hours, and 24.9 hours, respectively.

[3] = after 10 consecutive days of dosing
[4] = multiple-dose phase, after the first dose

exposure (Css,max, AUC0-t, AUC0-t, and AUC0-inf) [1, 3]: increased in a dose-proportional manner | mean clearance (CL/F) [1, 3]: no dose-related trend | half-life ([1]; blood, after 10 consecutive days of once daily dosing, 4-30 mg, read-out: mean elimination half-life): 12.4 to 15.8 h | Tmax ([1]; blood, after 10 consecutive days of once daily dosing, 4-30 mg): 3 to 4 h | half-life ([1]; blood, multiple-dose phase, first dose on Day 1, 4-30 mg, read-out: mean half-life): 10.1 to 19.4 h | Tmax ([1]; blood, multiple-dose phase, first dose on Day 1, 4-30 mg): 2 to 3 h | half-life ([1]; in vivo, single-dose phase, 1-50 mg, healthy volunteers, read-out: mean elimination half-life (t½)): 13.1 to 19.7 h | Tmax ([1]; in vivo, single-dose phase, 1-50 mg, healthy volunteers): 3 to 4.5 h | CLF [1, 4]: no apparent trend with dose | exposure (Cmax, AUC0-t, and AUC0-inf) [1, 4]: increased with dose | exposure (Cmax, AUC0-t, and AUC0-inf) ([1]; single-dose phase): increased in a dose-proportional manner | mean clearance (CL/F) ([1]; single-dose phase): no dose-related trend | half-life ([2]; female rats, 1.5 mg/kg oral gavage): 12.9 h | half-life ([2]; female rats, 5.0 mg/kg oral gavage): 5.72 h | half-life ([2]; female rats, 15.0 mg/kg oral gavage): 24.9 h | half-life ([2]; male rats, 1.5 mg/kg oral gavage): 6.72 h | half-life ([2]; male rats, 5.0 mg/kg oral gavage): 15 h | half-life ([2]; male rats, 15.0 mg/kg oral gavage): 10.2 h
Structure (SMILES): O=C(O)CNC(=O)C1=C(O)C2(CCCC2)n2c(ccc2-c2ccccc2)C1=O [Comp-1, (6′-hydroxy-8′-oxo-3′-phenyl-8′H-spiro[cyclopentane-1,5′-indolizine]-7′-carbonyl)glycine]
